Assay results from ChEMBL document CHEMBL3991601, “The target landscape of clinical kinase drugs” (Science, 2017).
Activity calls are given as the source filed them.

Key:
[1] = target: Ras-related protein Rab-6A (Homo sapiens, UniProt P20340)
[2] = target: T1, ADP/ATP translocase 3 (Homo sapiens, UniProt P12236)
T1 sequence (P12236 whole entry): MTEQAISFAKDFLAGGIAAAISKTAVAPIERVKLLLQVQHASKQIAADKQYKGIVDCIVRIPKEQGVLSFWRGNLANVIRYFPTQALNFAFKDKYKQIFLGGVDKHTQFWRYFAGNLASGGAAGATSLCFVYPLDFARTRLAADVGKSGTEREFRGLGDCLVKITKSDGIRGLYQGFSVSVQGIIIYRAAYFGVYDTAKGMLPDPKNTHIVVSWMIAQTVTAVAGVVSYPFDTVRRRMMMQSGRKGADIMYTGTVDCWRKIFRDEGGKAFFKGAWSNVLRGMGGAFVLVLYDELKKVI

[3] = target: T2, Ras-related protein Rab-10 (Homo sapiens, UniProt P61026)
T2 sequence (P61026 whole entry): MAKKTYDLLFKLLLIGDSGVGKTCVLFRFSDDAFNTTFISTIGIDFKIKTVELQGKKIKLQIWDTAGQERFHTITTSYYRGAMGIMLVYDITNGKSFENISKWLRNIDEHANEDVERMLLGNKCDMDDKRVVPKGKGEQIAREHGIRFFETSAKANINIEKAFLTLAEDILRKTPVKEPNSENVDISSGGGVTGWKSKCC

[4] = target: T3, ATP-dependent RNA helicase DDX42 (Homo sapiens, UniProt Q86XP3)
T3 sequence (Q86XP3 whole entry): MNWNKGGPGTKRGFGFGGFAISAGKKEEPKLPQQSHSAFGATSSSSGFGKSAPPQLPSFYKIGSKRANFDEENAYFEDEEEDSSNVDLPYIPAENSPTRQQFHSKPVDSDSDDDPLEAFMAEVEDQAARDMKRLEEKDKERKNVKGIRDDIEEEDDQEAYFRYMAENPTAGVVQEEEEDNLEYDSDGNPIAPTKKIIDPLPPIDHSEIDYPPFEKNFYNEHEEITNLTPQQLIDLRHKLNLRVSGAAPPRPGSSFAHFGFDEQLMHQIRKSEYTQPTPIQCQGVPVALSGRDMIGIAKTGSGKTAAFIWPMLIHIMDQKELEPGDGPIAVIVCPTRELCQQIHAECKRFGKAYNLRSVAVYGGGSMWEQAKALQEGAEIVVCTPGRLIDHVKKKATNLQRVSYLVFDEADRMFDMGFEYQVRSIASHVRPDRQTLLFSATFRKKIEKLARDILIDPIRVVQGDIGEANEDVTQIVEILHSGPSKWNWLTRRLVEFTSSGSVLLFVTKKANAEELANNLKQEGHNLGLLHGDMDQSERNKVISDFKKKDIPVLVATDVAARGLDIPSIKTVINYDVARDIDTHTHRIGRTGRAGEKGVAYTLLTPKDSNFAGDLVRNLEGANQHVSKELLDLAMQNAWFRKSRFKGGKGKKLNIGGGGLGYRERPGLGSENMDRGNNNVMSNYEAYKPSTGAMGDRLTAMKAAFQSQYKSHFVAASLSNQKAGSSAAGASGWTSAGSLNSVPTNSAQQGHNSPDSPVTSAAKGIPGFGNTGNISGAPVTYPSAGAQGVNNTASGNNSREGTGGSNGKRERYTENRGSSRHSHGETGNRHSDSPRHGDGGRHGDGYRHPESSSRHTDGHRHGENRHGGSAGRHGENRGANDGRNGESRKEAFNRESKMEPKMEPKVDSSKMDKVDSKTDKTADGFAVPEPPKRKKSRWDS

[5] = target: Adenylate kinase 2, mitochondrial (Homo sapiens, UniProt P54819)
[6] = target: T4, Serine/threonine-protein kinase TBK1 (Homo sapiens, UniProt Q9UHD2)
T4 sequence (Q9UHD2 whole entry): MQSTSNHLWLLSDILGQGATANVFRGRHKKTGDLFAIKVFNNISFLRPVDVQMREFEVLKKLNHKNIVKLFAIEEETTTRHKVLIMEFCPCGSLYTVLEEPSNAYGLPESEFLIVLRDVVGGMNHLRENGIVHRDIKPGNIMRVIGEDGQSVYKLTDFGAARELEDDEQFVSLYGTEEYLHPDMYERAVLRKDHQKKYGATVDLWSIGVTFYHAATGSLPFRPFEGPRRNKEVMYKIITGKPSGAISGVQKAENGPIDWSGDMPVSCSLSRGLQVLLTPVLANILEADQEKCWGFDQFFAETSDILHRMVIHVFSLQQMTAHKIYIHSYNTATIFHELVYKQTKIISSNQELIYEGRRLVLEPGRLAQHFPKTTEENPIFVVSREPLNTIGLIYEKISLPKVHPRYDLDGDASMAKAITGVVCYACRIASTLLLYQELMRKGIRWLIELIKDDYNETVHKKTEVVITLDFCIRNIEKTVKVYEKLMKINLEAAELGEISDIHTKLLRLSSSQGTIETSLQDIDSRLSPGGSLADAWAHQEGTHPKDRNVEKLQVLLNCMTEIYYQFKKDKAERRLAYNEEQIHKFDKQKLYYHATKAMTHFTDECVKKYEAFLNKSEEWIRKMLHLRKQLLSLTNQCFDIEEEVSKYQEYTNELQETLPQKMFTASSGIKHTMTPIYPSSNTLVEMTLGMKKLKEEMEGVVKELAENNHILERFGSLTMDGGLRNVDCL

[7] = target: Adenosine kinase (Homo sapiens, UniProt P55263)
[8] = target: Ribosomal protein S6 kinase alpha-3 (Homo sapiens, UniProt P51812)
[9] = target: T5, Pyridoxal kinase (Homo sapiens, UniProt O00764)
T5 sequence (O00764 whole entry): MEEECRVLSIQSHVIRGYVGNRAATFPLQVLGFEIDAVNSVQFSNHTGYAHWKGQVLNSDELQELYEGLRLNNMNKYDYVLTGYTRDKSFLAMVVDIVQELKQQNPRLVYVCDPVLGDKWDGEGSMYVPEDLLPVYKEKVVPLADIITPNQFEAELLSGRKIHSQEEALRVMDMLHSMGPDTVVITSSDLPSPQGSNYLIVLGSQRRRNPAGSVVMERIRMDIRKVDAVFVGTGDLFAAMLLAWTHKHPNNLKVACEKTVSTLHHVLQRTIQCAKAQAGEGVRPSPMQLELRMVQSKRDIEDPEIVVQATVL

[10] = target: Wee1-like protein kinase (Homo sapiens, UniProt P30291)
[11] = target: Myosin-14 (Homo sapiens, UniProt Q7Z406)
[12] = target: DNA topoisomerase 2-alpha (Homo sapiens, UniProt P11388)
Further: in the data inactive means no Kd found up to 30 µM.

Sequence of Ras-related protein Rab-6A (P20340 whole entry): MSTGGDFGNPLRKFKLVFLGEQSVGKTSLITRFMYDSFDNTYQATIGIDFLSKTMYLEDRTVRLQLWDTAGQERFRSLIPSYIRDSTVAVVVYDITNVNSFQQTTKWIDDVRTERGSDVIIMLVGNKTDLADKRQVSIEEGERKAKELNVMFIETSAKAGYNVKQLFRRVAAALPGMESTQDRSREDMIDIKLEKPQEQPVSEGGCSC
Sequence of Wee1-like protein kinase (P30291 whole entry): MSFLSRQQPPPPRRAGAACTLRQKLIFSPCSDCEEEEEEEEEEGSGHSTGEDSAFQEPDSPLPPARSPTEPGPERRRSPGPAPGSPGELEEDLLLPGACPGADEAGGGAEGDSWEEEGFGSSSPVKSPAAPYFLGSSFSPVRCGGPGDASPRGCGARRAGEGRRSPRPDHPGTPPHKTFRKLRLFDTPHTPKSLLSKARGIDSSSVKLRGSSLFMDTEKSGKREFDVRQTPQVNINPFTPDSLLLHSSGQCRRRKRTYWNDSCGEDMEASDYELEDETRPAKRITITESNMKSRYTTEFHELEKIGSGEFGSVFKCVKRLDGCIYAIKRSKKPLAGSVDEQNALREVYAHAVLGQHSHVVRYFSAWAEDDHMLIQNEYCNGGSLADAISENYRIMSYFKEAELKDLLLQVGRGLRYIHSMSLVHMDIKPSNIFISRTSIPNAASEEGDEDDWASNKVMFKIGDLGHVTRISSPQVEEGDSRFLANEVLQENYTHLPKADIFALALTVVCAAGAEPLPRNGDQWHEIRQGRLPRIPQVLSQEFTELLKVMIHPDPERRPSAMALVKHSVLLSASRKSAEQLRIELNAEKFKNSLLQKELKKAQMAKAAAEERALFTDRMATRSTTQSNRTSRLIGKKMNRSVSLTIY
Sequence of Ribosomal protein S6 kinase alpha-3 (P51812 whole entry): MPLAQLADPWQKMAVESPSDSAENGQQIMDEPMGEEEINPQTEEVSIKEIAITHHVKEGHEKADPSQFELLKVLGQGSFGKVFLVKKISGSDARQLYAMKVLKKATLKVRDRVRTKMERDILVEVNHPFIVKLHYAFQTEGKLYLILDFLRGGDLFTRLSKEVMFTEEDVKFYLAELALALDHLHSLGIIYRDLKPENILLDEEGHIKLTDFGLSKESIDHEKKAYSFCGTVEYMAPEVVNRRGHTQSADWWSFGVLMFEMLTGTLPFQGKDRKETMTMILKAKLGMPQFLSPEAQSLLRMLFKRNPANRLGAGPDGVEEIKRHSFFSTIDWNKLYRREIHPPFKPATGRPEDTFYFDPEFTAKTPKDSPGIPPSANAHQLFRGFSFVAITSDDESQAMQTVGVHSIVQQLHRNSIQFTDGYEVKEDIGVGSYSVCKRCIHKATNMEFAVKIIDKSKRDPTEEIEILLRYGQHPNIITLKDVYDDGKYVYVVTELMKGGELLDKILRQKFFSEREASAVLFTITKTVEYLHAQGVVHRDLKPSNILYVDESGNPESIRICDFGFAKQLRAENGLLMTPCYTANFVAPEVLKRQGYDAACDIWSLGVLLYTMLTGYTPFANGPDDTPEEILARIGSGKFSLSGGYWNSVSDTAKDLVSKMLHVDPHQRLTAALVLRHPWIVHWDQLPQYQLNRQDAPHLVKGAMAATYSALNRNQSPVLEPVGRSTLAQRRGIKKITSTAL
Sequence of DNA topoisomerase 2-alpha (P11388 whole entry): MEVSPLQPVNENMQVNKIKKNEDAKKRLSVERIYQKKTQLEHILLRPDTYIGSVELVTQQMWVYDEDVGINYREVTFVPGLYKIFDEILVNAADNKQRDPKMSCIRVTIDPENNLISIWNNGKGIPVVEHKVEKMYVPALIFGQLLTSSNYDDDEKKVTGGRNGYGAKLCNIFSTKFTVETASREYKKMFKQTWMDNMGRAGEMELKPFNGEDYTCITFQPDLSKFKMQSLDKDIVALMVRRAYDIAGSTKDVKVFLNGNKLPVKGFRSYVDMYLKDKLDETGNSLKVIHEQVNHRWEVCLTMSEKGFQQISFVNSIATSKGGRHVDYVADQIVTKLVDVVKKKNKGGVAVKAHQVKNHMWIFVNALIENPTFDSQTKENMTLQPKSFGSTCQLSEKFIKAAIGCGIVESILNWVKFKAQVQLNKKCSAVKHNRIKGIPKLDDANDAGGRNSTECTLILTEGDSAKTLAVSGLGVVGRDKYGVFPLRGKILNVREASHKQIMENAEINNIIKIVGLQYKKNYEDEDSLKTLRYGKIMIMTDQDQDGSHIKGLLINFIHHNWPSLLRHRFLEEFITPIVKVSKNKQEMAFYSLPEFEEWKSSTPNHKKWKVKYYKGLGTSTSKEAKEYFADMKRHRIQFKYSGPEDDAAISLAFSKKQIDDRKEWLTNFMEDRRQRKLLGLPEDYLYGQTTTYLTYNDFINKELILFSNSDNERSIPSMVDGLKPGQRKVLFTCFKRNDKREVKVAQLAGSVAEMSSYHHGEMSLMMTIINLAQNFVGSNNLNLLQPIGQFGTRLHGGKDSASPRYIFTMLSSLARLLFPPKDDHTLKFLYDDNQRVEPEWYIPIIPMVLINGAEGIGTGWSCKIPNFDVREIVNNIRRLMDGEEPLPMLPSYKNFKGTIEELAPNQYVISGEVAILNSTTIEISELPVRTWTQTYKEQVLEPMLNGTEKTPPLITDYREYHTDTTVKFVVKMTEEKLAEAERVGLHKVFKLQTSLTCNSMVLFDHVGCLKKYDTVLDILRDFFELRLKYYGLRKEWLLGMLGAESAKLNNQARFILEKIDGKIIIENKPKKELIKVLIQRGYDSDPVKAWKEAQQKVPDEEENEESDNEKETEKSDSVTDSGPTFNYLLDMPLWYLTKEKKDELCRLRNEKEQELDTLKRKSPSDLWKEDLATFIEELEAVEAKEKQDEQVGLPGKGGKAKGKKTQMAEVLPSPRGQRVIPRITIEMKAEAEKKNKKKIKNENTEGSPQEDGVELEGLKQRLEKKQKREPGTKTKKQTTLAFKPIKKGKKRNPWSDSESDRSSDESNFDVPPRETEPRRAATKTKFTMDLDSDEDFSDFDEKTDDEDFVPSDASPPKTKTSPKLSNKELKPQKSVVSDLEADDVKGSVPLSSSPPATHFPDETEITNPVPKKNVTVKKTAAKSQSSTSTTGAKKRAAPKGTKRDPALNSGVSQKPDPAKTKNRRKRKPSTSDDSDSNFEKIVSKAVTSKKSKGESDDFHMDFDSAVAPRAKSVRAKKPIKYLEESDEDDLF
Sequence of Adenosine kinase (P55263 whole entry): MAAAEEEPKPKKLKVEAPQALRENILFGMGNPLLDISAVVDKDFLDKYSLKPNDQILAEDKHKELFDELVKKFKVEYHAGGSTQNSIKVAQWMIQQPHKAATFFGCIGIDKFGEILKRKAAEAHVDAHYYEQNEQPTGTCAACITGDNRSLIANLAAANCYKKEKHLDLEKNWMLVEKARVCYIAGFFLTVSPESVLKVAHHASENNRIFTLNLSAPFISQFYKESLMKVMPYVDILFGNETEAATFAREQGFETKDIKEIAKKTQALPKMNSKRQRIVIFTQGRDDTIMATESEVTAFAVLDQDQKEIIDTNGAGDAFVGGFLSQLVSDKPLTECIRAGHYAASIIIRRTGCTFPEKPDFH

Kd [1] | Kd [2] | Kd [3] | Kd [4] | Kd [5] | Kd [6] | Kd [7] | Kd [8] | Kd [9] | Kd [10] | Kd [11] | Kd [12] | SMILES
> 30 µM (inactive) | > 30 µM (inactive) | > 30 µM (inactive) | > 30 µM (inactive) | > 30 µM (inactive) | > 30 µM (inactive) | > 30 µM (inactive) | > 30 µM (inactive) | > 30 µM (inactive) | > 30 µM (inactive) | > 30 µM (inactive) | > 30 µM (inactive) | COc1cc2nccc(Oc3ccc(NC(=O)Nc4cc(C)on4)c(Cl)c3)c2cc1OC [TIVOZANIB]
> 30 µM (inactive) | > 30 µM (inactive) | > 30 µM (inactive) | > 30 µM (inactive) | > 30 µM (inactive) | > 30 µM (inactive) | > 30 µM (inactive) | > 30 µM (inactive) | > 30 µM (inactive) | > 30 µM (inactive) | > 30 µM (inactive) | > 30 µM (inactive) | C[C@@H](c1ccc2nccn2c1)n1nnc2ncc(-c3cnn(C)c3)nc21 [SAVOLITINIB]
> 30 µM (inactive) | > 30 µM (inactive) | > 30 µM (inactive) | > 30 µM (inactive) | > 30 µM (inactive) | > 30 µM (inactive) | > 30 µM (inactive) | > 30 µM (inactive) | 0.286 µM (active) | > 30 µM (inactive) | > 30 µM (inactive) | > 30 µM (inactive) | CC[C@@H]1C(=O)N(C)c2cnc(Nc3ccc(C(=O)N[C@H]4CC[C@H](N5CCN(CC6CC6)CC5)CC4)cc3OC)nc2N1C(C)C [VOLASERTIB]
> 30 µM (inactive) | > 30 µM (inactive) | > 30 µM (inactive) | > 30 µM (inactive) | > 30 µM (inactive) | > 30 µM (inactive) | > 30 µM (inactive) | > 30 µM (inactive) | > 30 µM (inactive) | > 30 µM (inactive) | > 30 µM (inactive) | > 30 µM (inactive) | O=c1sn(-c2cccc3ccccc23)c(=O)n1Cc1ccccc1 [TIDEGLUSIB]
> 30 µM (inactive) | > 30 µM (inactive) | > 30 µM (inactive) | > 30 µM (inactive) | > 30 µM (inactive) | > 30 µM (inactive) | > 30 µM (inactive) | > 30 µM (inactive) | > 30 µM (inactive) | > 30 µM (inactive) | > 30 µM (inactive) | > 30 µM (inactive) | CN1CCC(CNc2ccc3ncc(-c4cccc(OC(F)(F)F)c4)n3n2)CC1 [SGI-1776]
> 30 µM (inactive) | > 30 µM (inactive) | > 30 µM (inactive) | > 30 µM (inactive) | > 30 µM (inactive) | > 30 µM (inactive) | > 30 µM (inactive) | > 30 µM (inactive) | > 30 µM (inactive) | > 30 µM (inactive) | > 30 µM (inactive) | > 30 µM (inactive) | CCCS(=O)(=O)Nc1ccc(F)c(C(=O)c2c[nH]c3ncc(-c4ccc(Cl)cc4)cc23)c1F [VEMURAFENIB]

Further lines, the molecule ahead of its results:

SMILES | Kd [1] | Kd [2] | Kd [3] | Kd [4] | Kd [5] | Kd [6] | Kd [7] | Kd [8] | Kd [9] | Kd [10] | Kd [11] | Kd [12]
Cc1cc([C@@H](C)Nc2ccccc2C(=O)O)c2nc(N3CCOCC3)cc(=O)n2c1 [AZD-6482] | > 30 µM (inactive) | > 30 µM (inactive) | > 30 µM (inactive) | > 30 µM (inactive) | > 30 µM (inactive) | > 30 µM (inactive) | > 30 µM (inactive) | > 30 µM (inactive) | > 30 µM (inactive) | > 30 µM (inactive) | > 30 µM (inactive) | > 30 µM (inactive)
COC(=O)[C@@]1(O)C[C@H]2O[C@]1(C)n1c3ccccc3c3c4c(c5c6ccccc6n2c5c31)C(=O)NC4 [K-252A] | > 30 µM (inactive) | > 30 µM (inactive) | > 30 µM (inactive) | > 30 µM (inactive) | > 30 µM (inactive) | 1.16 µM (active) | > 30 µM (inactive) | 2.99 µM (active) | > 30 µM (inactive) | > 30 µM (inactive) | > 30 µM (inactive) | > 30 µM (inactive)
CCS(=O)(=O)N1CC(CC#N)(n2cc(-c3ncnc4[nH]ccc34)cn2)C1 [BARICITINIB] | > 30 µM (inactive) | > 30 µM (inactive) | > 30 µM (inactive) | > 30 µM (inactive) | > 30 µM (inactive) | > 30 µM (inactive) | > 30 µM (inactive) | > 30 µM (inactive) | > 30 µM (inactive) | > 30 µM (inactive) | > 30 µM (inactive) | > 30 µM (inactive)
CNS(=O)(=O)Nc1nccc(Cc2c(C)c3ccc(Oc4ncccn4)cc3oc2=O)c1F [AVUTOMETINIB] | > 30 µM (inactive) | > 30 µM (inactive) | > 30 µM (inactive) | > 30 µM (inactive) | > 30 µM (inactive) | > 30 µM (inactive) | > 30 µM (inactive) | > 30 µM (inactive) | > 30 µM (inactive) | > 30 µM (inactive) | > 30 µM (inactive) | > 30 µM (inactive)
